Values after ≈ are worked out from the molar mass of the structure shown.
Tested on: T1, rat intestinal α-glucosidase
T1 construct: gene Mgam; native; supernatant of PBS extract of commercial rat intestinal powder (crude mixture of brush-border glucosidases)
Test: turbidity ([…] nm) of corn starch hydrolysis, AUC, microplate
Type: biochemical
Details: corn starch substrate; PBS, 37 °C preincubation 15 min

IC50: 2.27 ± 1.35 µg/mL (≈ 3.52 µM)
SMILES: C[C@H]1O[C@H](O[C@H]2[C@H](O)[C@@H](O)[C@@H](O[C@H]3[C@H](O)[C@@H](O)C(O)O[C@@H]3CO)O[C@@H]2CO)[C@H](O)[C@@H](O)[C@@H]1N[C@H]1C=C(CO)[C@@H](O)[C@H](O)[C@H]1O (stereo partly shown) [acarbose]
